Consider one molecule from patent publication US20250000786A1, “SENOTHERAPY COMPOSITION CONTAINING CAMELLIA SINENSIS EXTRACT” (AMOREPACIFIC CORPORATION, priority 2023, published 2025).

The subject of data set [1] is senescent human fibroblasts. Briefly: Cell death by CCK-8 in senescence-induced fibroblasts. Conditions: 72 hours. Type of data set: cell-based. The method, then: Human fibroblasts were cultured in a 6-well plate culture medium. Senescent cells were prepared by inducing senescence by culturing the fibroblasts in DMEM (containing 10% FBS) medium containing doxorubicin (100 ng/ml) and insulin-like growth factor 1 (IGF-1) (100 ng/ml) for 4 days. Then, the same medium was treated with a positive control material (ABT737, 1-10 uM) and the tea tree root extract (50-150 ppm) and cultured for 72 hours. The ABT737 is a Bcl-2 inhibitor and a representative senolytic. Young cells were treated with experimental materials in DMEM medium without inducing senescence and cultured for 72 hours. In order to confirm the senolytic efficacy of the treatment with the tea tree root extract, the medium was replaced with a medium diluted 1/100 with Cell counting kit-8 (CCK-8, dojindo), cultured for 1 hour, and then the absorbance was measured at 540 nm. Human fibroblasts were cultured in a 6-well plate culture medium. […] In order to confirm the senolytic efficacy of the material treated with the tea tree root extract, the medium was replaced with a medium diluted 1/100 with Cell counting kit-8 (CCK-8, dojindo), cultured for 1 hour, and then the absorbance was measured at 540 nm.

Data set [2] relates to young human fibroblasts. Briefly: Cell death by CCK-8 in young fibroblasts. It counts as cell-based. Conditions: concentration of 50 ppm or higher, 72 hours. On the procedure: Human fibroblasts were cultured in a 6-well plate culture medium. Senescent cells were prepared by inducing senescence by culturing the fibroblasts in DMEM (containing 10% FBS) medium containing doxorubicin (100 ng/ml) and insulin-like growth factor 1 (IGF-1) (100 ng/ml) for 4 days. Then, the same medium was treated with a positive control material (ABT737, 1-10 uM) and the tea tree root extract (50-150 ppm) and cultured for 72 hours. The ABT737 is a Bcl-2 inhibitor and a representative senolytic. Young cells were treated with experimental materials in DMEM medium without inducing senescence and cultured for 72 hours.
In order to confirm the senolytic efficacy of the treatment with the tea tree root extract, the medium was replaced with a medium diluted 1/100 with Cell counting kit-8 (CCK-8, dojindo), cultured for 1 hour, and then the absorbance was measured at 540 nm.
Human fibroblasts were cultured in a 6-well plate culture medium. […]
In order to confirm the senolytic efficacy of the material treated with the tea tree root extract, the medium was replaced with a medium diluted 1/100 with Cell counting kit-8 (CCK-8, dojindo), cultured for 1 hour, and then the absorbance was measured at 540 nm.

Consider `O=C(O[C@@H]1Cc2c(O)cc(O)cc2O[C@@H]1c1cc(O)c(O)c(O)c1)c1cc(O)c(O)c(O)c1` [EGCG, epigallocatechin gallate], for which the “killing senescent cells in fibroblasts” value in data set [1] is “no effect”. Moreover, in data set [2], the “cytotoxicity on young cells” value is reported as “showed cytotoxicity”.
